In the test the test system is active oxygen responsive calcium channel (TPC1 channel) of tobacco BY-2 cells. Kind of test: aequorin luminescence of tobacco BY-2 culture cells after adding reaction water (evaluation of redox activity). Format: cell-based. As to conditions: for suppression of the aequorin luminescence reaction induced by water containing active oxygen species: agent added to the reaction, FIG. 11. From the text: In a living organism, Ca^2+ is a signal-transmitting substance which becomes a key in an information transmission path which controls metabolism and gene expression. Usually, a concentration of cytoplasm free calcium ion (hereinafter abbreviated as [Ca^2+]cyt) in live cell is maintained at low concentration and with a difference of 10^6 to 10^7 times compared to extracellular cytoplasm free calcium ion. On a cell membranes of living organisms including plants, calcium channels which constitute calcium inflow paths which are activated and open in response to a specific stimulus exist. The presence of most of calcium channels is elucidated at a gene level or at a protein level. […] As a method of nondestructively measuring the behavior of Ca^2+ in the cell, particularly, a change of [Ca^2+]cyt, a method of monitoring the change of [Ca^2+]cyt in response to various stimulations using cells to which gene of aequorin which is Ca^2+ responsive photoprotein derived from Aequorea Victoria is established. Due to this method, it is possible to monitor the change of [Ca^2+]cyt real time by observing bioluminescence. Accordingly, it is possible to determine whether or not water is turned into water having redox reaction in which the redox action is actually generated and the intracellular response is brought about. […] By evaluating effect of addition of aluminum as an ion channel blocker and effects of an active oxygen removing agent, it is possible to determine whether or not a specific active oxygen responsive calcium channel is stimulated (Kawano, T., Kadono, T., Fumoto, […]., Kuse, M. Isobe, M. Furuichi, T. and Muto, S. (2004) Aluminum as a specific inhibitor of plant TPC1 Ca^2+ channels. Biochemical and Biophysical Research Communications 324 (1): 40-45). Accordingly, by using the experimental system, it is possible to evaluate whether or not active oxygen species are present at a level where active oxygen species can stimulate calcium information transmission which is a key of various physiological action including the cell death or the gene expression in the plant cell. […] 100 ml of water having redox activity is added to 500 ml of suspension of cells in which aequorin is expressed (1:5 mixture, 600 ml in total), and CLA chemiluminescence and aequorin luminescence are measured. The luminescence intensity is marked as relative luminescence intensity (rlu). […]

Molecules are shown by their SMILES.

Consider `[Al+3]` [Al^3+], for which the “suppression of the aequorin luminescence reaction induced by water containing active oxygen species” value (“suppression” below) is recorded as “suppressed”.
For `[La+3]` [La^3+], the “suppression” value is recorded as “suppressed”.
As for `O=S(=O)(O)c1cc(O)c(O)c(S(=O)(=O)O)c1` [Tiron], the “suppression” value is recorded as “suppressed”.
Regarding `[O]O` [superoxide anion radicals], the “concentration of superoxide anion radicals needed for water to have redox activity (intracellular response)” value (comparison of dissolved oxygen 8 mg/L and 30 mg/L samples, UV plus ultrasonic vibrations, FIG. 12) was “at least 5 mM”.

Values taken from US8889075B2, “Apparatus for producing water having redox activity” (Kitakyushu Foundation for the Advancement of Industry, …, priority 2007, dated 2014).
